Laboratory results taken from ChEMBL document CHEMBL5108065 (J Med Chem, 2022).
Calls of active or inactive are those of the source. No cut-off for these calls is given here.

Assays:
[1] = Drug metabolism in rat hepatocytes assessed as (S)-6-(2-chloro-3-((6-cyclopropylpyridin-3-yl)amino)phenyl)-2-imino-6-methyl-3-((2S,4S)-2-methyltetrahydro-2H-pyran-4-yl)tetrahydropyrimidin-4(1H)-one metabolite formation; assay type: ADME, cell-based, Hepatocyte
[2] = tested on: Plasmodium berghei; test: Antimalarial activity against luciferase expressing Plasmodium berghei sporozoites infected in naive C57B/6 liver mouse model assessed as decrease in liver infection at 50 mg/kg, po administered once daily on day 8 by Giemsa staining based microscopic analysis; assay type: functional, organism-based; conditions: time 8.0 day
[3] = Drug metabolism in Cynomolgus monkey hepatocytes assessed as (S)-6-(2-chloro-3-((6-cyclopropylpyridin-3-yl)amino)phenyl)-2-imino-6-methyl-3-((2S,4S)-2-methyltetrahydro-2H-pyran-4-yl)tetrahydropyrimidin-4(1H)-one metabolite formation; assay type: ADME, cell-based, Macaca fascicularis, Hepatocyte
[4] = biological target: Potassium voltage-gated channel subfamily A member 5 (Homo sapiens, UniProt P22460); test: Inhibition of Kv1.5 (unknown origin) by patch clamp method; assay type: toxicity
[5] = biological target: T1, A-type voltage-gated potassium channel KCND3 (Homo sapiens, UniProt Q9UK17); test: Inhibition of Kv4.3 (unknown origin) by patch clamp method; assay type: toxicity
T1 sequence (Q9UK17 whole entry): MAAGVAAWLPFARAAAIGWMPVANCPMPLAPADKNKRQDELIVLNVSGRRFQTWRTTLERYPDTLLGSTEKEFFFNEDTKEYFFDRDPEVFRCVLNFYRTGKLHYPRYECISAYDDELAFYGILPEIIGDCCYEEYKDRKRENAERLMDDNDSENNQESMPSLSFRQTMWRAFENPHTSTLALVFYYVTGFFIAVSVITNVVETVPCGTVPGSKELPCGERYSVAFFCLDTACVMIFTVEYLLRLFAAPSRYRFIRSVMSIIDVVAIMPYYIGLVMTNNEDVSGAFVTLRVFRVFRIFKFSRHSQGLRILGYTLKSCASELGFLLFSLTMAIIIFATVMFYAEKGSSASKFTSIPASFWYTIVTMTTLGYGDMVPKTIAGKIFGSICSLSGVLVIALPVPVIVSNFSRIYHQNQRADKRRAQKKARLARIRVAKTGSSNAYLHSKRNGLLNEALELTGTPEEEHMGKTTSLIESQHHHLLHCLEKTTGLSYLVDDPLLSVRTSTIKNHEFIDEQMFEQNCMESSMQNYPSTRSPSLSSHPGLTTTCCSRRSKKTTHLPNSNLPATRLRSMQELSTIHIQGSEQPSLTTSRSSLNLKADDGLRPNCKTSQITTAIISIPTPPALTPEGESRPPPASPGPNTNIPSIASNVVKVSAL

[6] = Drug metabolism in dog hepatocytes assessed as (S)-6-(2-chloro-3-((6-cyclopropylpyridin-3-yl)amino)phenyl)-2-imino-6-methyltetrahydropyrimidin-4(1H)-one metabolite formation; assay type: ADME, cell-based, Canis lupus familiaris, Hepatocyte
[7] = Cardiotoxicity in anesthetized guinea-pig assessed as decrease in arterial blood pressure; assay type: toxicity, Cavia porcellus; conditions: 0.09 µM, DDE = dose-dependent effect, dose 90 nM
[8] = tested on: Plasmodium falciparum; test: Antimalarial activity against Plasmodium falciparum Dd2 harbouring Pf-crt, Pf-mdrl,Pf-dhfr, Pf-dhps mutated loci assessed as inhibition of parasite growth pretreated for 48 hrs followed by [3H]-hypoxanthine addition measured after 24 hrs by scintillation counting method; assay type: functional, organism-based
[9] = Toxicity in Han Wistar rat assessed as changes in ophthalmology at 250 to 1000 mg/kg, po administered every other day for 7 days; assay type: organism-based; conditions: in vivo, 168 h, dose 250-1000 mg/kg, time 7 day
[10] = Oral bioavailability in Cynomolgus monkey blood at 10 mg/kg measured at 2 to 72 hrs by LC-MS/MS analysis; assay type: ADME, organism-based, Macaca fascicularis; conditions: time 2-72 hrs
[11] = Toxicity in Han Wistar rat assessed as effect on mydriasis at 250 to 1000 mg/kg, po administered every other day for 7 days; assay type: organism-based; conditions: in vivo, 168 h, dose 250-1000 mg/kg, time 7 day
[12] = tested on: Plasmodium falciparum; test: Antimalarial activity against ELQ300 resistant Plasmodium falciparum Dd2 harbouring pfcytB mutated loci assessed as inhibition of parasite growth pretreated for 48 hrs followed by [3H]-hypoxanthine addition measured after 24 hrs by scintillation counting method; assay type: functional, organism-based
[13] = Toxicity in Han Wistar rat assessed as effect on pupillary reflex at 250 to 1000 mg/kg, po administered every other day for 7 days; assay type: organism-based; conditions: in vivo, 168 h, dose 250-1000 mg/kg, time 7 day
[14] = Genotoxicity in Han Wistar rat by micronucleus assay; assay type: toxicity
[15] = tested on: Plasmodium falciparum; test: Antimalarial activity against DSM265 resistant Plasmodium falciparum Dd2 harbouring pf-dhodh mutated loci assessed as inhibition of parasite growth pretreated for 48 hrs followed by [3H]-hypoxanthine addition measured after 24 hrs by scintillation counting method; assay type: functional, organism-based
[16] = Phototoxicity assessed as minimum extinction coefficient of the compound; assay type: toxicity
[17] = tested on: Plasmodium falciparum; test: Antimalarial activity against Plasmodium falciparum 7G8 harbouring Pf-crt, Pf-mdrl,Pf-dhfr, Pf-dhps mutated loci assessed as inhibition of parasite growth pretreated for 48 hrs followed by [3H]-hypoxanthine addition measured after 24 hrs by scintillation counting method; assay type: functional, organism-based
[18] = Toxicity in Han Wistar rat assessed as effect on implicit times and latency at 1000 mg/kg, po administered every other day for 7 days by ERG analysis; assay type: organism-based; conditions: in vivo, 168 h, time 7 day
[19] = species: Homo sapiens; test: Inhibition of BACE (unknown origin) at 10 uM relative to control
[20] = Clearance in Sprague-Dawley rat blood at 1 mg/kg, iv measured at 2 to 72 hrs by LC-MS/MS analysis; assay type: ADME, organism-based; conditions: whole blood, time 2-72 hrs
[21] = tested on: Plasmodium falciparum; test: Antimalarial activity against DDD107498 resistant Plasmodium falciparum Dd2 harbouring pfeef2 mutated loci assessed as inhibition of parasite growth pretreated for 48 hrs followed by [3H]-hypoxanthine addition measured after 24 hrs by scintillation counting method; assay type: functional, organism-based
[22] = fAUC in Han Wistar rat at 1000 mg/kg, po administered every other day for 7 days; assay type: ADME, organism-based; conditions: in vivo, 168 h, time 7 day
[23] = AUC in Cynomolgus monkey blood at 10 mg/kg, po measured at 2 to 72 hrs by LC-MS/MS analysis; assay type: ADME, organism-based, Macaca fascicularis; set-up: dose 10 mg/kg, time 2-72 hrs, route po
[24] = Terminal half life in Cynomolgus monkey blood at 1 mg/kg, iv measured at 2 to 72 hrs by LC-MS/MS analysis; assay type: ADME, organism-based, Macaca fascicularis; conditions: whole blood, time 2-72 hrs, read-out: beta t1/2 (converted)
[25] = biological target: Plasmepsin X (Plasmodium falciparum (isolate 3D7)) (UniProt Q8IAS0); conditions: Expi293F GnTI-
Description: Inhibition of Plasmodium falciparum recombinant C-terminal TEV cleavable 8his-tagged PMX by FRET assay

[26] = Cmax in Cynomolgus monkey blood at 10 mg/kg, po measured at 2 to 72 hrs by LC-MS/MS analysis; assay type: ADME, organism-based, Macaca fascicularis; set-up: dose 10 mg/kg, time 2-72 hrs, route po; conditions: whole blood
[27] = tested on: Plasmodium falciparum; test: Antimalarial activity against KAF156 resistant Plasmodium falciparum Dd2 harbouring pf-carl mutated loci assessed as inhibition of parasite growth pretreated for 48 hrs followed by [3H]-hypoxanthine addition measured after 24 hrs by scintillation counting method; assay type: functional, organism-based
[28] = tested on: Plasmodium falciparum; test: Antimalarial activity against Plasmodium falciparum Dd2048 harbouring pfpi4k mutated loci assessed as inhibition of parasite growth pretreated for 48 hrs followed by [3H]-hypoxanthine addition measured after 24 hrs by scintillation counting method; assay type: functional, organism-based
[29] = Toxicity in Han Wistar rat assessed as effect on auditory reflex at 250 to 1000 mg/kg, po administered every other day for 7 days; assay type: organism-based; conditions: in vivo, 168 h, dose 250-1000 mg/kg, time 7 day
[30] = AUC in Cynomolgus monkey blood at 1 mg/kg, iv measured at 2 to 72 hrs by LC-MS/MS analysis; assay type: ADME, organism-based, Macaca fascicularis; set-up: dose 1 mg/kg, time 2-72 hrs, route iv; conditions: whole blood

Chain of Potassium voltage-gated channel subfamily A member 5 (P22460 whole entry): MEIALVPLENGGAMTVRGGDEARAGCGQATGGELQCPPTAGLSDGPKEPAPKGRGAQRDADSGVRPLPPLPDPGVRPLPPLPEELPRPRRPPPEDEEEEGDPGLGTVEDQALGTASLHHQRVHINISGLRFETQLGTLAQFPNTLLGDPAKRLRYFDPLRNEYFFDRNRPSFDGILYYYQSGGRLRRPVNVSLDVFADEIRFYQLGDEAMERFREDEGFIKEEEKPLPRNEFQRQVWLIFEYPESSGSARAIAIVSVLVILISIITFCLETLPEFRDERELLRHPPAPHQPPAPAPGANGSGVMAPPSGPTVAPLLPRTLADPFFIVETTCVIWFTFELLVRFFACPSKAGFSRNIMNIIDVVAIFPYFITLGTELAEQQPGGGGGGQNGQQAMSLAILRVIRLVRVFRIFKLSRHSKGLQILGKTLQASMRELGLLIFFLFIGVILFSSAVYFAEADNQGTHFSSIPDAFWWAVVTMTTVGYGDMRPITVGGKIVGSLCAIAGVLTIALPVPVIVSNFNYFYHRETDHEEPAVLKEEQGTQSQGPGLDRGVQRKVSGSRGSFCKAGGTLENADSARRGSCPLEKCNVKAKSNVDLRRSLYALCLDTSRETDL
Chain of Plasmepsin X (Plasmodium falciparum (isolate 3D7)) (Q8IAS0 whole entry): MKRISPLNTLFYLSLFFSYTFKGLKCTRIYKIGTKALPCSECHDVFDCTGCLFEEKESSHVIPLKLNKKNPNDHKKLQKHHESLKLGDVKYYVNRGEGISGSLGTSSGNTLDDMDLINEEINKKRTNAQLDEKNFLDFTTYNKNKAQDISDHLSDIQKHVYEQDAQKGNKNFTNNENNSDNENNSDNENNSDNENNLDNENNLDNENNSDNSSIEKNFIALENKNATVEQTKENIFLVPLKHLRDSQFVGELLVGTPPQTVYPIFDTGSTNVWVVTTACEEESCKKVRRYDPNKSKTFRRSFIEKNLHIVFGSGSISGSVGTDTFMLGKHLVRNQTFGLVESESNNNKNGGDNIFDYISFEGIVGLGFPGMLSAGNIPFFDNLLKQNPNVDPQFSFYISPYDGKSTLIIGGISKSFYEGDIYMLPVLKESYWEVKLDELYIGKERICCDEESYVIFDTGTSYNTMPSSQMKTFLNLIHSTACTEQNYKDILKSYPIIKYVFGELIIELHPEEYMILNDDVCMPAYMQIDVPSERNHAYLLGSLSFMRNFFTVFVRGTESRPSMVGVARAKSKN

Which results are given for `C[C@H]1C[C@@H](N2C(=N)N[C@](C)(c3cccc(Nc4ccc(C5CC5)nc4)c3Cl)CC2=O)CCO1`?
Drug metabolism [1]: Metabolite_Detected; Activity [2]: Active; Drug metabolism [3]: Metabolite_Detected; IC50 [4]: 5 µM; IC50 [5]: 28 µM; Drug metabolism [6]: Metabolite_Detected

Which results are given for `C[C@H]1C[C@@H](N2C(=N)N[C@](C)(c3cccc(NC(=O)c4cccc(C#N)c4)c3Cl)CC2=O)CCO1`?
Activity [7]: Dde; IC50 [8]: 0.018 µM; Activity [9]: Non-Toxic; bioavailability [10]: 39%; Activity [11]: Non-Toxic; IC50 [12]: 0.017 µM; Activity [13]: Non-Toxic; Activity [14]: Non-Toxic; IC50 [15]: 0.022 µM; Activity [16]: 2336 a.u.L/mol.cm; IC50 [17]: 0.024 µM; Activity [18]: Non-Toxic; inhibition [19]: 64%; clearance [20]: 43.9 mL/min/kg; IC50 [21]: 0.022 µM; fAUC [22]: 908 µM·h; AUC [23]: 7.38 µM·h; half-life [24]: 4.1 h; IC90 [25]: 0.052 µM; Cmax [26]: 2560 nM; IC50 [27]: 0.019 µM; IC50 [28]: 0.02 µM; Activity [29]: Non-Toxic; AUC [30]: 1.91 µM·h
